Data as given in ChEMBL document CHEMBL3045512, “Synthesis of some novel triazoloquinazolines and triazinoquinazolines and their evaluation for anti-inflammatory activity” (Med Chem Res, 2012).

Tests used:
Mus musculus [1] = experiment: Toxicity in Mus musculus albino (mouse) assessed as GPx activity per gram of Hb at 600 mg/kg, po for 10 days (Rvb =179.16 +/- 10.45 U/g Hb); assay type: organism-based; parameters: dose 600 mg/kg, route oral; conditions: in vivo, 240 h
Mus musculus [2] = experiment: Toxicity in Mus musculus albino (mouse) assessed as serum ALP level at 600 mg/kg, po for 10 days (reference value: 31.63 +/- 3.73 U/l); assay type: organism-based; parameters: dose 600 mg/kg, route oral; conditions: in vivo, 240 h
Mus musculus [3] = experiment: Toxicity in Mus musculus albino (mouse) assessed as GSH activity at 600 mg/kg, po for 10 days (reference value: 59.57 +/- 5.10 %); assay type: organism-based; parameters: dose 600 mg/kg, route oral; conditions: in vivo, 240 h
Mus musculus [4] = experiment: Toxicity in Mus musculus albino (mouse) assessed as serum LDH level at 600 mg/kg, po for 10 days (reference value: 217.84 +/- 13.36 U/l); assay type: organism-based; parameters: dose 600 mg/kg, route oral; conditions: in vivo, 240 h
Mus musculus [5] = experiment: Anti-inflammatory activity in Mus musculus albino (mouse) assessed as inhibition of formalin-induced paw swelling at 60 mg/kg, po administered 30 min prior formalin challenge measured after 60 min post challenge (reference value: 9.73 +/- 0.06 mm/min); assay type: functional
Mus musculus [6] = experiment: Anti-inflammatory activity in Mus musculus albino (mouse) assessed as inhibition of formalin-induced paw swelling at 60 mg/kg, po administered 30 min prior formalin challenge measured after 90 min post challenge (reference value: 9.5 +/- 0.04 mm/min); assay type: functional
Mus musculus [7] = experiment: Toxicity in Mus musculus albino (mouse) assessed as serum gamma-glutamyl transferase level at 600 mg/kg, po for 10 days (reference value: 4.43 +/- 0.31 U/l); assay type: organism-based; parameters: dose 600 mg/kg, route oral; conditions: in vivo, 240 h
Mus musculus [8] = experiment: Anti-inflammatory activity in Mus musculus albino (mouse) assessed as inhibition of formalin-induced paw swelling at 60 mg/kg, po administered 30 min prior formalin challenge measured after 30 min post challenge (reference value: 9.46 +/- 0.035 mm/min); assay type: functional
Mus musculus [9] = experiment: Toxicity in Mus musculus albino (mouse) assessed as serum SGOT level at 600 mg/kg, po for 10 days (reference value: 9.74 +/- 1.73 U/l); assay type: organism-based; parameters: dose 600 mg/kg, route oral; conditions: in vivo, 240 h
Mus musculus [10] = experiment: Anti-inflammatory activity in Mus musculus albino (mouse) assessed as inhibition of formalin-induced paw swelling at 60 mg/kg, po administered 30 min prior formalin challenge measured after 120 min post challenge (reference value: 9.83 +/- 0.071 mm/min); assay type: functional
Mus musculus [11] = experiment: Toxicity in Mus musculus albino (mouse) assessed as serum SGPT level at 600 mg/kg, po for 10 days (reference value: 35.82 +/- 5.26 U/l); assay type: organism-based; parameters: dose 600 mg/kg, route oral; conditions: in vivo, 240 h
Mus musculus [12] = experiment: Toxicity in Mus musculus albino (mouse) assessed as SOD activity per gram of Hb at 600 mg/kg, po for 10 days (reference value: 12.7 +/- 2.08 U/g Hb); assay type: organism-based; parameters: dose 600 mg/kg, route oral; conditions: in vivo, 240 h
Mus musculus [13] = experiment: Toxicity in Mus musculus albino (mouse) assessed as serum TBARS level at 600 mg/kg, po for 10 days (reference value: 4.35 +/- 0.86 U/l); assay type: organism-based; parameters: dose 600 mg/kg, route oral; conditions: in vivo, 240 h
Mus musculus [14] = experiment: Toxicity in Mus musculus albino (mouse) assessed as serum TBARS level at 300 mg/kg, po for 10 days (reference value: 4.35 +/- 0.86 U/l); assay type: organism-based; parameters: dose 300 mg/kg, route oral; conditions: in vivo, 240 h
Mus musculus [15] = experiment: Toxicity in Mus musculus albino (mouse) assessed as tremor inhind limbs at 80 to 375 mg/kg, ip; assay type: organism-based, Limb; parameters: dose 80-375 mg/kg, route intraperitoneal; conditions: in vivo
Mus musculus [16] = experiment: Toxicity in Mus musculus albino (mouse) assessed as brownish eye mucus at 80 to 375 mg/kg, ip; assay type: organism-based; parameters: dose 80-375 mg/kg, route intraperitoneal; conditions: in vivo
Mus musculus [17] = experiment: Toxicity in Mus musculus albino (mouse) assessed as increase in heart rate at 80 to 375 mg/kg, ip; assay type: organism-based; parameters: dose 80-375 mg/kg, route intraperitoneal; conditions: in vivo
Mus musculus [18] = experiment: Toxicity in Mus musculus albino (mouse) assessed as serum SGOT level at 300 mg/kg, po for 10 days (reference value: 9.74 +/- 1.73 U/l); assay type: organism-based; parameters: dose 300 mg/kg, route oral; conditions: in vivo, 240 h
Mus musculus [19] = experiment: Toxicity in Mus musculus albino (mouse) assessed as serum LDH level at 300 mg/kg, po for 10 days (reference value: 217.84 +/- 13.36 U/l); assay type: organism-based; parameters: dose 300 mg/kg, route oral; conditions: in vivo, 240 h
Mus musculus [20] = experiment: Toxicity in Mus musculus albino (mouse) assessed as serum SGPT level at 300 mg/kg, po for 10 days (reference value: 35.82 +/- 5.26 U/l); assay type: organism-based; parameters: dose 300 mg/kg, route oral; conditions: in vivo, 240 h
Mus musculus [21] = experiment: Toxicity in Mus musculus albino (mouse) assessed as SOD activity per gram of Hb at 300 mg/kg, po for 10 days (reference value: 12.7+/- 2.08 U/g Hb); assay type: organism-based; parameters: dose 300 mg/kg, route oral; conditions: in vivo, 240 h
Mus musculus [22] = experiment: Toxicity in Mus musculus albino (mouse) assessed as GPx activity per gram of Hb at 300 mg/kg, po for 10 days (Rvb =179.16 +/- 10.45 U/g Hb); assay type: organism-based; parameters: dose 300 mg/kg, route oral; conditions: in vivo, 240 h
Mus musculus [23] = experiment: Toxicity in Mus musculus albino (mouse) assessed as rapid respiration at 80 to 375 mg/kg, ip; assay type: organism-based; parameters: dose 80-375 mg/kg, route intraperitoneal; conditions: in vivo
Mus musculus [24] = experiment: Toxicity in Mus musculus albino (mouse) assessed as serum gamma-glutamyl transferase level at 300 mg/kg, po for 10 days (reference value: 4.43 +/- 0.31 U/l); assay type: organism-based; parameters: dose 300 mg/kg, route oral; conditions: in vivo, 240 h
Mus musculus [25] = experiment: Toxicity in Mus musculus albino (mouse) assessed as bluish toe at 80 to 375 mg/kg, ip; assay type: organism-based; parameters: dose 80-375 mg/kg, route intraperitoneal; conditions: in vivo
Mus musculus [26] = experiment: Toxicity in Mus musculus albino (mouse) assessed as GSH activity at 300 mg/kg, po for 10 days (reference value: 59.57 +/- 5.10 %); assay type: organism-based; parameters: dose 300 mg/kg, route oral; conditions: in vivo, 240 h
Mus musculus [27] = experiment: Anti-inflammatory activity in Mus musculus albino (mouse) assessed as inhibition of formalin-induced paw swelling at 30 mg/kg, po administered 30 min prior formalin challenge measured after 30 min post challenge (reference value: 9.46 +/- 0.035 mm/min); assay type: functional
Mus musculus [28] = experiment: Anti-inflammatory activity in Mus musculus albino (mouse) assessed as inhibition of formalin-induced paw swelling at 30 mg/kg, po administered 30 min prior formalin challenge measured after 60 min post challenge (reference value: 9.73 +/- 0.06 mm/min); assay type: functional
Mus musculus [29] = experiment: Toxicity in Mus musculus albino (mouse) assessed as bluish skin at 80 to 375 mg/kg, ip; assay type: organism-based; parameters: dose 80-375 mg/kg, route intraperitoneal; conditions: in vivo
Mus musculus [30] = experiment: Toxicity in Mus musculus albino (mouse) assessed as serum ALP level at 300 mg/kg, po for 10 days (reference value: 31.63 +/- 3.73 U/l); assay type: organism-based; parameters: dose 300 mg/kg, route oral; conditions: in vivo, 240 h
Mus musculus [31] = experiment: Anti-inflammatory activity in Mus musculus albino (mouse) assessed as inhibition of formalin-induced paw swelling at 30 mg/kg, po administered 30 min prior formalin challenge measured after 120 min post challenge (reference value: 9.83 +/- 0.071 mm/min); assay type: functional
Mus musculus [32] = experiment: Anti-inflammatory activity in Mus musculus albino (mouse) assessed as inhibition of formalin-induced paw swelling at 30 mg/kg, po administered 30 min prior formalin challenge measured after 90 min post challenge (reference value: 9.5 +/- 0.04 mm/min); assay type: functional
Mus musculus [33] = experiment: Toxicity in Mus musculus albino (mouse) assessed as general depression at 80 to 375 mg/kg, ip; assay type: organism-based; parameters: dose 80-375 mg/kg, route intraperitoneal; conditions: in vivo
Mus musculus [34] = experiment: Toxicity in ip dosed Mus musculus albino (mouse) assessed as mortality measured per gram body weight; assay type: organism-based; conditions: in vivo

SMILES: COc1ccc2c(c1)c(CC(=O)O)c(C)n2C(=O)c1ccc(Cl)cc1 [INDOMETHACIN]
- Activity (Mus musculus [1]): 134 U/g Hb
- Activity (Mus musculus [2]): 76.41 U/L
- Activity (Mus musculus [3]): 45.32%
- Activity (Mus musculus [4]): 326.8 U/L
- Activity (Mus musculus [5]): 7.19 millimeter/min
- Activity (Mus musculus [6]): 7.2 millimeter/min
- Activity (Mus musculus [7]): 9.45 U/L
- Activity (Mus musculus [8]): 6.5 millimeter/min
- Activity (Mus musculus [9]): 24.51 U/L
- Activity (Mus musculus [10]): 6.98 millimeter/min
- Activity (Mus musculus [11]): 65.37 U/L
- Activity (Mus musculus [12]): 7.45 U/g Hb
- Activity (Mus musculus [13]): 7.45 nmol/mL

SMILES: COc1ccccc1/C=N/n1c(Nc2ccc(S(N)(=O)=O)cc2)nc2ccccc2c1=O
- Activity (Mus musculus [14]): 3.97 nmol/mL
- Activity (Mus musculus [15]): Toxic
- Activity (Mus musculus [16]): Toxic
- Activity (Mus musculus [17]): Toxic
- Activity (Mus musculus [18]): 10.7 U/L
- Activity (Mus musculus [19]): 205.65 U/L
- Activity (Mus musculus [20]): 33.65 U/L
- Activity (Mus musculus [21]): 13.1 U/g Hb
- Activity (Mus musculus [22]): 183 U/g Hb
- Activity (Mus musculus [23]): Toxic
- Activity (Mus musculus [24]): 4.12 U/L
- Activity (Mus musculus [25]): Toxic
- Activity (Mus musculus [26]): 61.45%
- Activity (Mus musculus [27]): 7.76 millimeter/min
- Activity (Mus musculus [28]): 7.78 millimeter/min
- Activity (Mus musculus [29]): Toxic
- Activity (Mus musculus [30]): 30.01 U/L
- Activity (Mus musculus [31]): 6.5 millimeter/min
- Activity (Mus musculus [32]): 7.19 millimeter/min
- Activity (Mus musculus [33]): Toxic
- Activity (Mus musculus [34]): 222.25 millimeter/min
